Test results as given in US10759813B2, “Neprilysin inhibitors” (THERAVANCE BIOPHARMA R&D IP, LLC, priority 2010, dated 2020).

Each molecule was assayed against human neprilysin (EC 3.4.24.11; NEP) (Homo sapiens (Human), UniProt P08473) (assay: In vitro enzyme inhibition assay at human NEP (fluorogenic peptide substrate)). Conditions: pKi values at human NEP, recombinant human NEP.
Format: biochemical
Method in brief: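 Recombinant human NEP preincubated 30 min at 37 °C with compound (10 μM down to pM), then 10 μM Mca-D-Arg-Arg-Leu-Dap-(Dnp)-OH in 50 mM HEPES pH 7.5, 100 mM NaCl, 0.01% Tween-20, 10 μM ZnSO4. Stopped after 20 min with acetic acid; fluorescence Ex320/Em405; Ki by nonlinear fit, reported as pKi.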

human neprilysin (EC 3.4.24.11; NEP), sequence (P08473 52-750): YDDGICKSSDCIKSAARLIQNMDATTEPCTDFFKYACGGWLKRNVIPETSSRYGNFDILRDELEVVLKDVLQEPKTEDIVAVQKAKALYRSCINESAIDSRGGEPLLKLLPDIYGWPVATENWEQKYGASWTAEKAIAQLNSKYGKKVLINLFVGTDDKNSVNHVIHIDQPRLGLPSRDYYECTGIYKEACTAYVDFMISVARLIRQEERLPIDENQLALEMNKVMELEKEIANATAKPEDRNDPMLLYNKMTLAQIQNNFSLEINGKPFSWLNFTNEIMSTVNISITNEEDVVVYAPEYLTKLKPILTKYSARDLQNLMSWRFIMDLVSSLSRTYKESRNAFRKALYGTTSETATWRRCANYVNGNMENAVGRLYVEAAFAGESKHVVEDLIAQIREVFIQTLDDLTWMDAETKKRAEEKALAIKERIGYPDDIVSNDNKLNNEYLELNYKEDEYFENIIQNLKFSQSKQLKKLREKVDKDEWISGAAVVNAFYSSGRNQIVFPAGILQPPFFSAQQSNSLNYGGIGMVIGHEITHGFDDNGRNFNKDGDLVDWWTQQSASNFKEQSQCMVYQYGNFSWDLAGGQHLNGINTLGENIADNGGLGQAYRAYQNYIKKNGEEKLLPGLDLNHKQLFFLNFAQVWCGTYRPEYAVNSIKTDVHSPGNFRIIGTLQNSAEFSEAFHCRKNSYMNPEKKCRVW

| Structure (SMILES) | pKi | Ki [nM] |
| --- | --- | --- |
| O=C(N[C@H](Cc1ccc(-c2ccccc2)cc1)C[C@@H](O)C(=O)O)c1cc(-c2cccnc2)[nH]n1 [Example 15-21, (2R,4R)-5-Biphenyl-4-yl-2-hydroxy-4-[(5-pyridin-3-yl-1H-pyrazole-3-carbonyl)-amino]-pentanoic acid] | ≥9.0 | – |
| O=C(N[C@H](Cc1ccc(-c2ccccc2)cc1)CC(O)C(=O)O)c1cc(-c2cnccn2)[nH]n1 (stereo partly drawn) [Example 15-22, (R)-5-Biphenyl-4-yl-2-hydroxy-4-[(5-pyrazin-2-yl-1H-pyrazole-3-carbonyl)amino]-pentanoic acid] | – | 1.26 to 10 |
| Cn1cc(-c2cc(C(=O)N[C@H](Cc3ccc(-c4ccccc4)cc3)CC(O)C(=O)O)n[nH]2)cn1 (stereo partly drawn) [Example 15-23, (R)-5-Biphenyl-4-yl-2-hydroxy-4-[(1′-methyl-2H, 1′H-[3,4′]bipyrazolyl-5-carbonyl)amino]-pentanoic acid] | – | 12.6 to 100 |
| O=C(N[C@H](Cc1ccc(-c2ccccc2)cc1)CC(O)C(=O)O)c1cc(-c2ccccc2Cl)[nH]n1 (stereo partly drawn) [Example 15-24, (R)-5-Biphenyl-4-yl-4-{[5-(2-chlorophenyl)-1H-pyrazole-3-carbonyl]amino}-2-hydroxy-pentanoic acid] | – | 1.26 to 10 |
| O=C(N[C@H](Cc1ccc(-c2ccccc2)cc1)C[C@@H](O)C(=O)O)c1cc(-c2cccc(Cl)c2)[nH]n1 [Example 15-25, (2R,4R)-5-Biphenyl-4-yl-4-{[5-(3-chlorophenyl)-1H-pyrazole-3-carbonyl]-amino}-2-hydroxy-pentanoic acid] | ≥9.0 | – |
| O=C(N[C@H](Cc1ccc(-c2ccccc2)cc1)C[C@@H](O)C(=O)O)c1cc(-c2ccc(Cl)cc2Cl)[nH]n1 [Example 15-26, (2R,4R)-5-Biphenyl-4-yl-4-{[5-(2,4-dichlorophenyl)-1H-pyrazole-3-carbonyl]-amino}-2-hydroxy-pentanoic acid] | ≥9.0 | – |

Continued, values first:

| pKi | Ki [nM] | Structure (SMILES) |
| --- | --- | --- |
| ≥9.0 | – | O=C(N[C@H](Cc1ccc(-c2ccccc2)cc1)C[C@@H](O)C(=O)O)c1cc(-c2cc(Cl)ccc2Cl)[nH]n1 [Example 15-27, (2R,4R)-5-Biphenyl-4-yl-4-{[5-(2,5-dichlorophenyl)-1H-pyrazole-3-carbonyl]-amino}-2-hydroxy-pentanoic acid] |
| ≥9.0 | – | O=C(N[C@H](Cc1ccc(-c2ccccc2)cc1)C[C@@H](O)C(=O)O)c1cc(-c2ccccc2O)[nH]n1 [Example 15-28, (2R,4R)-5-Biphenyl-4-yl-2-hydroxy-4-{[5-(2-hydroxy-phenyl)-1H-pyrazole-3-carbonyl]-amino}-pentanoic acid] |
| ≥9.0 | – | O=C(N[C@H](Cc1ccc(-c2ccccc2)cc1)C[C@@H](O)C(=O)O)c1cc(-c2ccccc2O)n(CC(O)CO)n1 (stereo partly drawn) [Example 15-30, (2R,4R)-5-Biphenyl-4-yl-4-{[1-(2,3-dihydroxy-propyl)-5-(2-hydroxy-phenyl)-1H-pyrazole-3-carbonyl]-amino}-2-hydroxy-pentanoic acid] |
| – | 1.26 to 10 | CC(=O)Nc1cccc(-c2cc(C(=O)N[C@H](Cc3ccc(-c4ccccc4)cc3)CC(O)C(=O)O)n[nH]2)c1 (stereo partly drawn) [Example 15-31, (R)-4-{[5-(3-Acetylamino-phenyl)-1H-pyrazole-3-carbonyl]amino}-5-biphenyl-4-yl-2-hydroxypentanoic acid] |
| – | 1.26 to 10 | COc1ccccc1C(=O)Nc1cc(C(=O)N[C@H](Cc2ccc(-c3ccccc3)cc2)C[C@@H](O)C(=O)O)n[nH]1 [Example 15-32, (2R,4R)-5-Biphenyl-4-yl-2-hydroxy-4-{[5-(2-methoxy-benzoylamino)-1H-pyrazole-3-carbonyl]-amino}-pentanoic acid] |
| ≥9.0 | – | O=C(N[C@H](Cc1ccc(-c2ccccc2)cc1)C[C@@H](O)C(=O)O)c1cc(-c2ccccc2)[nH]n1 [Example 15-33, (2R,4R)-5-Biphenyl-4-yl-2-hydroxy-4-[(5-phenyl-1H-pyrazole-3-carbonyl)-amino]-pentanoic acid] |
| – | 1.26 to 10 | Cn1nc(C(=O)N[C@H](Cc2ccc(-c3ccccc3)cc2)CC(O)C(=O)O)cc1-c1ccccc1 (stereo partly drawn) [Example 15-34, (R)-5-Biphenyl-4-yl-2-hydroxy-4-[(1-methyl-5-phenyl-1H-pyrazole-3-carbonyl)amino]-pentanoic acid] |
